The results in this text go back to BindingDB's records for doi:10.1021/jm00101a030 (University of Michigan, 1992).

The test is described as follows: Binding affinity against Opioid receptor delta 1 in guinea pig brain homogenates, using [3H]DPDPE as radioligand.

As usually defined, the Ki is a dissociation constant, usually derived from enzyme kinetics or from competition with a known ligand. A low value points to higher affinity. The compound `CC1(C)SSC[C@@H](NC(=O)[C@H]2NCC[C@@H]2c2ccc(O)cc2)C(=O)N[C@@H](Cc2ccccc2)C(=O)N[C@@H]1C(=O)O` registered an inhibition constant (Ki) of 0.66 nM.

Regarding `CC1(C)SSC[C@@H](NC(=O)[C@@H]2NCC[C@@H]2c2ccc(O)cc2)C(=O)N[C@@H](Cc2ccccc2)C(=O)N[C@@H]1C(=O)O`, the affinity corresponds to a Ki of 84 nM.
